For 18 compounds, Activity, Kd and IC50 results are on record in ChEMBL document CHEMBL3763029, “Heptapeptide ligands against receptor-binding sites of influenza hemagglutinin toward anti-influenza therapy” (Bioorg Med Chem, 2016).

Assay [1] concerns Influenza A virus (A/Wyoming/03/2003(H3N2)). Kind of assay: Binding affinity to Influenza A virus (A/Wyoming/03/2003(H3N2)) H3 hemagglutinin after 2 hrs by avidin-biotin-peroxidase complex method in presence of Neu5Ac.
The test system is the same in assay [2]. Kind of assay: Binding affinity to Influenza A virus (A/Wyoming/03/2003(H3N2)) H3 hemagglutinin after 2 hrs by avidin-biotin-peroxidase complex method in presence of glucose.
The test system is the same in assay [3]. Kind of assay: Binding affinity to Influenza A virus (A/Wyoming/03/2003(H3N2)) H3 hemagglutinin at 400 uM after 2 hrs by avidin-biotin-peroxidase complex method relative to 7-1 peptide.
Assay [4] has the same test system. Kind of assay: (§1) Binding affinity to Influenza A virus (A/Wyoming/03/2003(H3N2)) H3 hemagglutinin after 2 hrs by avidin-biotin-peroxidase complex method.
The nature of assay [5]: (§2) Binding affinity to Influenza A virus (A/New Caledonia/20/99 (H1N1)) H1 hemagglutinin after 2 hrs by avidin-biotin-peroxidase complex method. Set-up: species or system Influenza A virus (A/New Caledonia/20/1999(H1N1)).
Assay [6] can be described thus: Binding affinity to Influenza A virus (A/Aichi/2/68(H3N2)) H3 hemagglutinin after 2 hrs by NMR method. Also on record: species or system Influenza A virus (A/Aichi/2/1968(H3N2)).
The nature of assay [7]: as §1.
The next assay concerns Influenza A virus. Kind of assay: Antiviral activity against Influenza A virus (A/Puerto Rico/8/34(H1N1)) infected in MDCK cells assessed as inhibition of plaque formation pretreated with virus for 30 mins followed by host cell infection for 30 mins measured after 2 days by crystal violet staining assay. In kind it is functional, organism-based. To be noted: A/Puerto Rico/8/1934(H1N1).

A further assay relates to H3N2 subtype. Kind of assay: Antiviral activity against Influenza A virus (A/Aichi/2/68(H3N2)) infected in MDCK cells assessed as inhibition of plaque formation pretreated with virus for 30 mins followed by host cell infection for 30 mins measured after 2 days by crystal violet staining assay. The format is functional, organism-based. To be noted: A/Aichi/2/1968(H3N2).

Assay [8] deals with Influenza A virus (A/New Caledonia/20/1999(H1N1)). Described as §2.
Assay [9] deals with Influenza A virus (A/Wyoming/03/2003(H3N2)). As to the kind of experiment: Binding affinity to Influenza A virus (A/Wyoming/03/2003(H3N2)) H3 hemagglutinin at 200 uM after 2 hrs by avidin-biotin-peroxidase complex method in presence of Neu5Ac.

pIC50, pKd: −log10 of the molar value. Active and inactive are the calls of the source. No cut-off for these calls is given here. Peptide text beside a SMILES is read from it. * marks the point of attachment. Biotinyl(3aR,4S,6aS) = O=C1N[C@H]2[C@H](CCCCC(=O)*)SC[C@H]2N1; Biotin = O=C1N[C@H]2[C@H](CS[C@H]2CCCCC(=O)*)N1; Stearoyl = CCCCCCCCCCCCCCCCCC(=O)* Bounds are passed on as bounds.

For the compound `CC(C)C[C@H](NC(=O)[C@@H]1CCCN1C(=O)[C@H](CCCNC(=N)N)NC(=O)[C@@H](NC(=O)[C@@H](N)CC(C)C)C(C)C)C(=O)N[C@@H](C)C(=O)N[C@@H](C)C(=O)N[C@@H](CCCCNC(=O)CCCC[C@@H]1SC[C@H]2NC(=O)N[C@@H]12)C(N)=O` (H-LVRPLAAK(Biotinyl(3aR,4S,6aS))-NH2), in [1], the outcome was inactive. The result in [2] was Active.

The compound `CC(C)C[C@H](NC(=O)[C@H](C)NC(=O)[C@H](CC(C)C)NC(=O)[C@@H]1CCCN1C(=O)[C@H](CC(=O)O)NC(=O)[C@@H](NC(=O)[C@@H](N)CC(C)C)C(C)C)C(=O)N[C@@H](CCCCNC(=O)CCCC[C@@H]1SC[C@H]2NC(=O)N[C@@H]12)C(N)=O` (H-LVDPLALK(Biotinyl(3aR,4S,6aS))-NH2) came in with an Activity in assay [3] of 19%.

As for `CC(C)C[C@H](NC(=O)[C@H](C)NC(=O)[C@H](CC(C)C)NC(=O)[C@@H]1CCCN1C(=O)[C@H](CCCNC(=N)N)NC(=O)[C@@H](NC(=O)[C@H](C)N)C(C)C)C(=O)N[C@@H](CCCCNC(=O)CCCC[C@@H]1SC[C@H]2NC(=O)N[C@@H]12)C(N)=O` (H-AVRPLALK(Biotinyl(3aR,4S,6aS))-NH2), in assay [1], the outcome was inactive. Besides, the outcome in assay [2] was Active.

On to `CC(C)C[C@H](NC(=O)[C@H](C)NC(=O)[C@H](Cc1c[nH]c2ccccc12)NC(=O)[C@@H]1CCCN1C(=O)[C@H](CCCNC(=N)N)NC(=O)[C@@H](NC(=O)[C@@H](N)CC(C)C)C(C)C)C(=O)N[C@@H](CCCCNC(=O)CCCC[C@@H]1SC[C@H]2NC(=O)N[C@@H]12)C(N)=O` (H-LVRPWALK(Biotinyl(3aR,4S,6aS))-NH2), for which, in assay [4], the result was Active.

On to `CC(C)C[C@H](NC(=O)[C@H](C)NC(=O)[C@H](CCCNC(=N)N)NC(=O)[C@@H](NC(=O)[C@@H](N)CC(C)C)C(C)C)C(=O)N[C@@H](C)C(=O)N[C@@H](CC(C)C)C(=O)N[C@@H](CCCCNC(=O)CCCC[C@@H]1SC[C@H]2NC(=O)N[C@@H]12)C(N)=O` (H-LVRALALK(Biotinyl(3aR,4S,6aS))-NH2), for which, in [4], the outcome was inactive.

For `CC(C)C[C@H](NC(=O)[C@H](C)NC(=O)[C@H](CC(C)C)NC(=O)[C@@H]1CCCN1C(=O)[C@H](Cc1cnc[nH]1)NC(=O)[C@@H](NC(=O)[C@@H](N)CC(C)C)C(C)C)C(=O)N[C@@H](CCCCNC(=O)CCCC[C@@H]1SC[C@H]2NC(=O)N[C@@H]12)C(N)=O` (H-LVHPLALK(Biotinyl(3aR,4S,6aS))-NH2), the result in assay [4] was Active.

With `CC(C)C[C@H](NC(=O)[C@H](C)NC(=O)[C@H](CC(C)C)NC(=O)[C@H](Cc1cnc[nH]1)NC(=O)[C@H](CCCNC(=N)N)NC(=O)[C@@H](NC(=O)[C@@H](N)CC(C)C)C(C)C)C(=O)N[C@@H](CCCCNC(=O)CCCC[C@@H]1SC[C@H]2NC(=O)N[C@@H]12)C(N)=O` (H-LVRHLALK(Biotinyl(3aR,4S,6aS))-NH2), the outcome in assay [4] was Active.

Take `CC(C)C[C@H](NC(=O)[C@H](C)NC(=O)[C@H](CC(C)C)NC(=O)[C@@H]1CCCN1C(=O)[C@H](CCCNC(=N)N)NC(=O)[C@H](C)NC(=O)[C@@H](N)CC(C)C)C(=O)N[C@@H](CCCCNC(=O)CCCC[C@@H]1SC[C@H]2NC(=O)N[C@@H]12)C(N)=O` (H-LARPLALK(Biotinyl(3aR,4S,6aS))-NH2): the result in [1] was inactive. In addition, the result in [2] was Active.

In general, pKd refers to the negative decadic logarithm of the Kd, by convention in mol/L. Read a low pKd as a large Kd. Turning to `CC(=O)N[C@H]1[C@H]([C@H](O)[C@H](O)CO)O[C@@](OC[C@H]2O[C@@H](O[C@H]3[C@H](O)[C@@H](O)[C@H](O)O[C@@H]3CO)[C@H](O)[C@@H](O)[C@H]2O)(C(=O)O)C[C@@H]1O`, the values for the negative-log Kd (pKd) in [5], in [6] and in [7] were under 3.30, 2.68 and under 3.30, respectively.

The pIC50 is −log10 of the IC50, conventionally taken in molar units. For the compound `CCCCCCCCCCCCCCCCCC(=O)N[C@@H](CC(C)C)C(=O)N[C@H](C(=O)N[C@@H](CCCNC(=N)N)C(=O)N1CCC[C@H]1C(=O)N[C@@H](CC(C)C)C(=O)N[C@@H](C)C(=O)N[C@@H](CC(C)C)C(N)=O)C(C)C` (Stearoyl-LVRPLAL-NH2), the negative-log IC50 (pIC50) with Influenza A virus is 4.00; in the assay with H3N2 subtype, 5.19.

`CC(C)C[C@H](NC(=O)[C@H](C)NC(=O)[C@H](CC(C)C)NC(=O)[C@@H]1CCCN1C(=O)[C@H](CCCNC(=N)N)NC(=O)[C@@H](NC(=O)[C@@H](N)CC(C)C)C(C)C)C(=O)N[C@@H](CCCCNC(=O)CCCC[C@@H]1SC[C@@H]2NC(=O)N[C@@H]21)C(N)=O` (H-LVRPLALK(Biotin)-NH2): the Activity entry in assay [8] and in assay [4] was “Dose-dependent effect” throughout. Besides, the pKd was 4.04 in assay [5] and 3.71 in assay [7]. For the same compound, in assay [9], the result was inactive.

On to `CC(C)C[C@H](NC(=O)[C@H](CC(=O)O)NC(=O)[C@H](CC(C)C)NC(=O)[C@@H]1CCCN1C(=O)[C@H](CCCNC(=N)N)NC(=O)[C@@H](NC(=O)[C@@H](N)CC(C)C)C(C)C)C(=O)N[C@@H](CCCCNC(=O)CCCC[C@@H]1SC[C@H]2NC(=O)N[C@@H]12)C(N)=O` (H-LVRPLDLK(Biotinyl(3aR,4S,6aS))-NH2), for which the outcome in [4] was Active.

Regarding `CC(C)C[C@H](NC(=O)[C@H](C)NC(=O)[C@H](C)NC(=O)[C@@H]1CCCN1C(=O)[C@H](CCCNC(=N)N)NC(=O)[C@@H](NC(=O)[C@@H](N)CC(C)C)C(C)C)C(=O)N[C@@H](CCCCNC(=O)CCCC[C@@H]1SC[C@H]2NC(=O)N[C@@H]12)C(N)=O` (H-LVRPAALK(Biotinyl(3aR,4S,6aS))-NH2), the outcome in [1] was inactive. For the same compound, the outcome in [2] was Active.

Regarding `CC(C)C[C@H](NC(=O)[C@H](C)NC(=O)[C@H](CC(C)C)NC(=O)[C@@H]1CCCN1C(=O)[C@H](C)NC(=O)[C@@H](NC(=O)[C@@H](N)CC(C)C)C(C)C)C(=O)N[C@@H](CCCCNC(=O)CCCC[C@@H]1SC[C@H]2NC(=O)N[C@@H]12)C(N)=O` (H-LVAPLALK(Biotinyl(3aR,4S,6aS))-NH2), the result in [4] was inactive.

Consider `CC(C)C[C@H](NC(=O)[C@H](C)NC(=O)[C@H](CC(C)C)NC(=O)[C@@H]1CCCN1C(=O)[C@H](CCCNC(=N)N)NC(=O)[C@H](CCC(N)=O)NC(=O)[C@@H](N)CC(C)C)C(=O)N[C@@H](CCCCNC(=O)CCCC[C@@H]1SC[C@H]2NC(=O)N[C@@H]12)C(N)=O` (H-LQRPLALK(Biotinyl(3aR,4S,6aS))-NH2), for which the result in assay [4] was Active.

For `CC(=O)N[C@H]1[C@H]([C@H](O)[C@H](O)CO)O[C@@](O[C@H]2[C@@H](O)[C@@H](CO)O[C@@H](O[C@H]3[C@H](O)[C@@H](O)[C@H](O)O[C@@H]3CO)[C@@H]2O)(C(=O)O)C[C@@H]1O`, the pKd in assay [5] is under 3.70; in assay [6], 2.49; in assay [7], under 3.40.

On to `CC(C)C[C@H](NC(=O)[C@H](C)NC(=O)[C@H](CC(C)C)NC(=O)[C@@H]1CCCN1C(=O)[C@H](CCCNC(=N)N)NC(=O)[C@@H](NC(=O)[C@@H](N)CC(=O)O)C(C)C)C(=O)N[C@@H](CCCCNC(=O)CCCC[C@@H]1SC[C@H]2NC(=O)N[C@@H]12)C(N)=O` (H-DVRPLALK(Biotinyl(3aR,4S,6aS))-NH2), for which the result in [4] was Active.

The compound `CC(C)C[C@H](NC(=O)CNC(=O)[C@H](CCCNC(=N)N)NC(=O)[C@@H](NC(=O)[C@@H](N)CC(C)C)C(C)C)C(=O)N[C@@H](C)C(=O)N[C@@H](CC(C)C)C(=O)N[C@@H](CCCCNC(=O)CCCC[C@@H]1SC[C@H]2NC(=O)N[C@@H]12)C(N)=O` (H-LVRGLALK(Biotinyl(3aR,4S,6aS))-NH2) displayed an Activity in assay [3] of 17%.
